Assay results: US12459951B2, “Compounds that interact with RAS superfamily proteins for treatment of cancers, inflammatory diseases, rasopathies, and fibrotic disease” (SHY Therapeutics, LLC, priority 2022, dated 2025)

Experiments:
Rac-1 = target: T1, Rac-1 (Homo sapiens, UniProt P63000); test: Ras GTP Binding Domain Inhibition Assay (Ras Superfamily Assay); settings: read-out: Rac-1: % inh.
T1 construct: made in house
How it was run: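 His-tagged GTPases immobilised on nickel-coated plates, pre-incubated with compound (20 μM single point, or serial dilution for IC50) 3 h at room temperature, with or without 10-30 μg/mL Sos (residues 556-1049) in the final hour. Bound Cy3- or Cy5-GTP (100 nM, 45 min) measured by fluorescence after washing.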

Erk1/2 phosphorylation = test: Erk1/2 Phosphorylation Assay (western blot), Panc-1; type: cell-based, human; settings: at 10 μM, * = activation
How it was run: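 Phospho-Erk1/2 (Thr202/Tyr204) was detected by western blot in lysates of Panc-1 cells (KRas G12D). These had 6 h, 37° C exposure to 10 μM compound or a dilution series for IC50, in 0.3% DMSO. Cells were either starved overnight in 0.5% FBS with a 15-min 1.5 ng/ml EGF pulse, or kept unstimulated in 10% FBS.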

Row | Compound | inhibition at 20 µM (Rac-1) [%] | % inh of Erk1/2 phosphorylation in Panc-1 (Erk1/2 phosphorylation)
1 | COCCNc1nc(-c2nccn2C)nn2cc(-c3cccc(OC)c3Cl)c(C)c12 [Compound 16, 6-(2-Chloro-3-methoxyphenyl)-N-(2-methoxyethyl)-5-methyl-2-(1-methyl-1H-imidazol-2-yl)pyrrolo[2,1-f][1,2,4]triazin-4-amine] | 0 | A (1-25% inhibition)
2 | COc1cc(Nc2nc(-c3nccn3C)nn3cc(-c4cccnc4)c(-c4cccnc4)c23)ncn1 [Compound 170, N-(6-Methoxypyrimidin-4-yl)-2-(1-methyl-1H-imidazol-2-yl)-5,6-di(pyridin-3-yl)pyrrolo[2,1-f][1,2,4]triazin-4-amine] | 76 to 100 | A* (1-25% activation)
3 | CO[C@H]1C[C@H](Nc2nc(-c3nccn3C)nn3cc(-c4cccnc4)c(-c4cccnc4)c23)C1 [Compound 171, N-((1r,3r)-3-Methoxycyclobutyl)-2-(1-methyl-1H-imidazol-2-yl)-5,6-di(pyridin-3-yl)pyrrolo[2,1-f][1,2,4]triazin-4-amine] | 1 to 25 | B (26-49% inhibition)
4 | Cc1c(-c2ccn(C)n2)cn2nc(-c3nccn3C)nc(O)c12 [Compound 172, 5-Methyl-2-(1-methyl-1H-imidazol-2-yl)-6-(1-methyl-1H-pyrazol-3-yl)pyrrolo[2,1-f][1,2,4]triazin-4-ol] | 26 to 49 | 0 (0% inhibition)
5 | CCNC(=O)c1c(-c2ccn(C)n2)cn2nc(-c3nccn3C)nc(Nc3cc(OC)ccn3)c12 [Compound 173, N-Ethyl-4-((4-methoxypyridin-2-yl)amino)-2-(1-methyl-1H-imidazol-2-yl)-6-(1-methyl-1H-pyrazol-3-yl)pyrrolo[2,1-f][1,2,4]triazine-5-carboxamide] | 50 to 75 | C (50-84% inhibition)
6 | COc1ccnc(Nc2nc(-c3nccn3C)nn3cc(-c4ccn(C)n4)c(C(=O)NCC(F)(F)F)c23)c1 [Compound 174, 4-((4-Methoxypyridin-2-yl)amino)-2-(1-methyl-1H-imidazol-2-yl)-6-(1-methyl-1H-pyrazol-3-yl)-N-(2,2,2-trifluoro-ethyl)pyrrolo[2,1-f][1,2,4]triazine-5-carboxamide] | 50 to 75 | D* (85-100% activation)
7 | COc1ccnc(Nc2nc(-c3nccn3C)nn3cc(-c4ccn(C)n4)c(C(=O)NC4CC4)c23)c1 [Compound 175, N-Cyclopropyl-4-((4-methoxypyridin-2-yl)amino)-2-(1-methyl-1H-imidazol-2-yl)-6-(1-methyl-1H-pyrazol-3-yl)pyrrolo[2,1-f][1,2,4]triazine-5-carboxamide] | 26 to 49 | D* (85-100% activation)
8 | COCCNC(=O)c1c(-c2ccn(C)n2)cn2nc(-c3nccn3C)nc(Nc3cc(OC)ccn3)c12 [Compound 176, N-(2-Methoxyethyl)-4-((4-methoxypyridin-2-yl)amino)-2-(1-methyl-1H-imidazol-2-yl)-6-(1-methyl-1H-pyrazol-3-yl)pyrrolo[2,1-f][1,2,4]triazine-5-carboxamide] | 76 to 100 | D* (85-100% activation)
9 | COc1ccnc(Nc2nc(-c3nccn3C)nn3cc(-c4ccn(C)n4)c(C(=O)NCCN(C)C)c23)c1 [Compound 177, N-(2-(Dimethylamino)ethyl)-4-((4-methoxypyridin-2-yl)amino)-2-(1-methyl-1H-imidazol-2-yl)-6-(1-methyl-1H-pyrazol-3-yl)pyrrolo[2,1-f][1,2,4]triazine-5-carboxamide] | 76 to 100 | D* (85-100% activation)
10 | COc1ccnc(Nc2nc(-c3nccn3C)nn3cc(-c4ccn(C)n4)c(C(=O)N4CCCC4)c23)c1 [Compound 178, (4-((4-Methoxypyridin-2-yl)amino)-2-(1-methyl-1H-imidazol-2-yl)-6-(1-methyl-1H-pyrazol-3-yl)pyrrolo[2,1-f][1,2,4]triazin-5-yl)(pyrrolidin-1-yl)methanone] | 76 to 100 | D* (85-100% activation)
11 | COc1ccnc(Nc2nc(-c3nccn3C)nn3cc(-c4ccn(C)n4)c(C(=O)N4CCOCC4)c23)c1 [Compound 179, (4-((4-Methoxypyridin-2-yl)amino)-2-(1-methyl-1H-imidazol-2-yl)-6-(1-methyl-1H-pyrazol-3-yl)pyrrolo[2,1-f][1,2,4]triazin-5-yl)(morpho-lino)methanone] | 76 to 100 | D* (85-100% activation)
12 | Cc1c(-c2ccn(C)n2)cn2nc(-c3nccn3C)nc(Nc3cc(OCCNC(=O)CCCC[C@H]4SC[C@H]5NC(=O)N[C@H]54)ccn3)c12 [Compound 186, N-(2-((2-((5-Methyl-2-(1-methyl-1H-imidazol-2-yl)-6-(1-methyl-1H-pyrazol-3-yl)pyrrolo[2,1-f][1,2,4]triazin-4-yl)amino)pyridin-4-yl)oxy)ethyl)-5-((3aR,4R,6aS)-2-oxohexahydro-1H-thieno[3,4-d]imidazol-4-yl)pentanamide] | 76 to 100 | A* (1-25% activation)
13 | COc1ccnc(Nc2nc(-c3nccn3C)nn3cc(-c4ccn(CCN)n4)c(C)c23)c1 [Compound 187, 6-(1-(2-Aminoethyl)-1H-pyrazol-3-yl)-N-(4-methoxypyridin-2-yl)-5-methyl-2-(1-methyl-1H-imidazol-2-yl)pyrrolo[2,1-f][1,2,4]triazin-4-amine] | 76 to 100 | A (1-25% inhibition)
14 | COc1ccnc(Nc2nc(-c3nccn3CCN)nn3cc(-c4ccn(C)n4)c(C)c23)c1 [Compound 188, 2-(1-(2-Aminoethyl)-1H-imidazol-2-yl)-N-(4-methoxypyridin-2-yl)-5-methyl-6-(1-methyl-1H-pyrazol-3-yl)pyrrolo[2,1-f][1,2,4]triazin-4-amine] | 76 to 100 | A (1-25% inhibition)
15 | Cn1ccnc1-c1nc(O)c2c(-c3ccccc3)c(-c3cccnc3)cn2n1 [Compound 189, 2-(1-Methyl-1H-imidazol-2-yl)-5-phenyl-6-(pyridin-3-yl)pyrrolo[2,1-f][1,2,4]triazin-4-ol] | 1 to 25 | A* (1-25% activation)
16 | CO[C@H]1C[C@@H](Nc2nc(-c3nccn3C)nn3cc(-c4cccnc4)c(-c4ccccc4)c23)C1 [Compound 191, N-((1s,3s)-3-Methoxycyclobutyl)-2-(1-methyl-1H-imidazol-2-yl)-5-phenyl-6-(pyridin-3-yl)pyrrolo[2,1-f][1,2,4]triazin-4-amine] | 1 to 25 | D* (85-100% activation)
17 | CO[C@H]1C[C@H](Nc2nc(-c3nccn3C)nn3cc(-c4cccnc4)c(-c4ccccc4)c23)C1 [Compound 192, N-((1r,3r)-3-Methoxycyclobutyl)-2-(1-methyl-1H-imidazol-2-yl)-5-phenyl-6-(pyridin-3-yl)pyrrolo[2,1-f][1,2,4]triazin-4-amine] | 1 to 25 | D* (85-100% activation)
18 | COCCNc1nc(-c2nccn2C)nn2cc(-c3cccnc3)c(-c3ccccc3)c12 [Compound 195, N-(2-Methoxyethyl)-2-(1-methyl-1H-imidazol-2-yl)-5-phenyl-6-(pyridin-3-yl)pyrrolo[2,1-f][1,2,4]triazin-4-amine] | 1 to 25 | B* (26-49% activation)
19 | COc1ccnc(Nc2nc(-c3nccn3C)nn3cc(-c4cccnc4)c(-c4ccccc4)c23)c1 [Compound 196, N-(4-Methoxypyridin-2-yl)-2-(1-methyl-1H-imidazol-2-yl)-5-phenyl-6-(pyridin-3-yl)pyrrolo[2,1-f][1,2,4]triazin-4-amine] | 76 to 100 | D* (85-100% activation)
20 | CO[C@H]1C[C@@H](Nc2nc(-c3nccn3C)nn3cc(-c4ccncc4)c(-c4ccccc4)c23)C1 [Compound 198, N-((1s,3s)-3-Methoxycyclobutyl)-2-(1-methyl-1H-imidazol-2-yl)-5-phenyl-6-(pyridin-4-yl)pyrrolo[2,1-f][1,2,4]triazin-4-amine] | 26 to 49 | D* (85-100% activation)
21 | CO[C@H]1C[C@H](Nc2nc(-c3nccn3C)nn3cc(-c4ccncc4)c(-c4ccccc4)c23)C1 [Compound 199, N-((1r,3r)-3-Methoxycyclobutyl)-2-(1-methyl-1H-imidazol-2-yl)-5-phenyl-6-(pyridin-4-yl)pyrrolo[2,1-f][1,2,4]triazin-4-amine] | 26 to 49 | D* (85-100% activation)
22 | COCCNc1nc(-c2nccn2C)nn2cc(-c3ccncc3)c(-c3ccccc3)c12 [Compound 202, N-(2-Methoxyethyl)-2-(1-methyl-1H-imidazol-2-yl)-5-phenyl-6-(pyridin-4-yl)pyrrolo[2,1-f][1,2,4]triazin-4-amine] | 26 to 49 | D* (85-100% activation)
23 | CO[C@H]1C[C@H](Nc2nc(-c3nccn3C)nn3cc(-c4ccccc4)c(-c4ccccc4)c23)C1 [Compound 203, N-((1r,3r)-3-Methoxycyclobutyl)-2-(1-methyl-1H-imidazol-2-yl)-5,6-diphenylpyrrolo[2,1-f][1,2,4]triazin-4-amine] | 1 to 25 | D (85-100% inhibition)
